# Key:
# Assay type in all cases: biochemical
# JAK3 = target: T1, JAK3 (Homo sapiens, UniProt P52333); assay: JAK3 Inhibition Assay; conditions: 1 μM poly(Glu)4Tyr, 5 μM ATP, 1 nM JAK3, 25 °C; read-out: JAK3 enzyme inhibition (Ki)
# T1 sequence (P52333 1-1124): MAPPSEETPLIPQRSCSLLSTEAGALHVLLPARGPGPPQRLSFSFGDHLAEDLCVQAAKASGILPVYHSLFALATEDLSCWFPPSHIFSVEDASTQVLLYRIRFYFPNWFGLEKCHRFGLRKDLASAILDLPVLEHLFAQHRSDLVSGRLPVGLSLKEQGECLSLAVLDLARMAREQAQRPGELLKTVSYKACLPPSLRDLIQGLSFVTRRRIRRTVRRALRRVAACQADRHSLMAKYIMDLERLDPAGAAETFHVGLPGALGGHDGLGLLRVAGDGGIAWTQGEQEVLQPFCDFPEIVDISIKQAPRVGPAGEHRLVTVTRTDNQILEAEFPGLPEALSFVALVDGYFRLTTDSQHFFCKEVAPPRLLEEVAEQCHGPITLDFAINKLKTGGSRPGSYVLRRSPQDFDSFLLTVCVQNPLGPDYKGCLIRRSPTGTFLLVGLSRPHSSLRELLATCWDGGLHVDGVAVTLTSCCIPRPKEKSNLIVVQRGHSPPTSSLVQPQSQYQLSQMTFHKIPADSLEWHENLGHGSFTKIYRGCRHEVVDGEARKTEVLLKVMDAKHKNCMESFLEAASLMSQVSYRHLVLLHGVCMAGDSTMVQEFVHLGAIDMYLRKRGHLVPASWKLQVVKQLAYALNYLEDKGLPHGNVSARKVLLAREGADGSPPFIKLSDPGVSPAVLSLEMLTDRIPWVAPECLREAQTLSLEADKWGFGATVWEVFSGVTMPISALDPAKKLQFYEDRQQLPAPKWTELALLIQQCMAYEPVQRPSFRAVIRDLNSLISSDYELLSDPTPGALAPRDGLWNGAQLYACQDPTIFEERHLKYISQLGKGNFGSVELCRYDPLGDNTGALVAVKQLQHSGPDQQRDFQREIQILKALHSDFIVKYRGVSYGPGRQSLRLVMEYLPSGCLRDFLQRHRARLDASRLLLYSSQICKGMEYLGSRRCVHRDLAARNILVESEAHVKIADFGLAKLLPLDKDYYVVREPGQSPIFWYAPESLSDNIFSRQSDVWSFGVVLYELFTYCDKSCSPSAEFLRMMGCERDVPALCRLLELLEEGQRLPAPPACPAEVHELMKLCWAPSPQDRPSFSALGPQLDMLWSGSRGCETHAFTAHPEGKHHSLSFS
# Protocol: (§1) Compounds were screened for their ability to inhibit JAK using the […] below. Reactions were carried out in a kinase buffer containing 100 mM HEPES (pH 7.4), 1 mM DTT, 10 mM MgCl2, 25 mM NaCl, and 0.01% BSA.
# (§2) Substrate concentrations in the assay were 5 μM ATP (200 uCi/μmole ATP) 1 μM poly(Glu)4Tyr. Reactions were carried out at 25 ° C. and 1 nM JAK3.
# (§3) To each well of a 96 well polycarbonate plate was added 1.5 μl of a JAK3 inhibitor along with 50 μl of kinase buffer containing 2 μM poly(Glu)4Tyr and 10 μM ATP. This was then mixed and 50 μl of kinase buffer 2 nM JAK3 enzyme was added to start the reaction. After 20 minutes at room temperature (25C), the reaction was stopped with 50 μl of 20% trichloroacetic acid (TCA) that also contained 0.4 mM ATP. The entire contents of each well were then transferred to a 96 well glass fiber filter plate using a TomTek Cell Harvester. After washing, 60 μl of scintillation fluid was added and ^33P incorporation detected on a Perkin Elmer TopCount.
# JAK2 = JAK2 (Homo sapiens, UniProt O60674); assay: JAK2 Inhibition Assay; conditions: 15 μM poly(Glu)4Tyr, 12 μM ATP; read-out: JAK2 enzyme inhibition (Ki)
# JAK2, sequence (O60674 whole entry): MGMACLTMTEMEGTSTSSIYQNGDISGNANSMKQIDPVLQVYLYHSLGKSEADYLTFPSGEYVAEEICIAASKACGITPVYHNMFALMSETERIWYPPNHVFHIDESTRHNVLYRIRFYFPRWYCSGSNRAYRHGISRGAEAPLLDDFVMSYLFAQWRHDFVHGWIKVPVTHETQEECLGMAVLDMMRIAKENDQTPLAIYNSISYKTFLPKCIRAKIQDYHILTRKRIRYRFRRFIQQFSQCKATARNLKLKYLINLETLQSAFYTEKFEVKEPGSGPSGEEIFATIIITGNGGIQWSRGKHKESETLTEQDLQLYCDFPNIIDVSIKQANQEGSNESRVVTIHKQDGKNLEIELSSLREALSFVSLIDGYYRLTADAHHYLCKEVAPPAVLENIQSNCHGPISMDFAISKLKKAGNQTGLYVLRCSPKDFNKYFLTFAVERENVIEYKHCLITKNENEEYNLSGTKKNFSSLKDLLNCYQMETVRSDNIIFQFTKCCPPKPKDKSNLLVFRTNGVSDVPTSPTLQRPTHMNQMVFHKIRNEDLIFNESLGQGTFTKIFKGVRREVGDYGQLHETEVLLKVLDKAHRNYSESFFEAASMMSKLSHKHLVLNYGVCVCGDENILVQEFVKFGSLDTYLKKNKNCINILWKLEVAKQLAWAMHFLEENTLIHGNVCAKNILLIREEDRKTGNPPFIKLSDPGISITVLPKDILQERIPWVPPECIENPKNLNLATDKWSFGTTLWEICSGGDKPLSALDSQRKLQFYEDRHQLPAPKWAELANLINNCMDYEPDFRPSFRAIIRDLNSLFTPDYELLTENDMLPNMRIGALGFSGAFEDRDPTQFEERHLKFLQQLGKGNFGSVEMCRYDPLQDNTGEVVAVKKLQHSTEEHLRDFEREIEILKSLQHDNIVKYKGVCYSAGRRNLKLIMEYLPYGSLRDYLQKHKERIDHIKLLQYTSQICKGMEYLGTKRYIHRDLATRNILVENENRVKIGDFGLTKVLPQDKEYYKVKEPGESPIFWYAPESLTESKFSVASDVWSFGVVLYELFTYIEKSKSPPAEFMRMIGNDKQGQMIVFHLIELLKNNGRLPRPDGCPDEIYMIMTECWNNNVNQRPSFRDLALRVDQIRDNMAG
# Protocol: as §1, §2, §3
# As described above in Example 11 except that JAK-2 enzyme is used, the final poly(Glu)4Tyr concentration is 15 μM, and final ATP concentration is 12 μM.
# PKA = PKA (Homo sapiens, UniProt P17612); assay: PKA Inhibition Assay (coupled enzyme assay); conditions: 50 μM ATP, 80 μM Kemptide, 18 nM PKA, 30 °C
# Protocol: Compounds were screened for their ability to inhibit PKA using a standard coupled enzyme assay (Fox et al., Protein Sci, 1998, 7, 2249). Assays were carried out in a mixture of 100 mM HEPES (pH 7.5), 10 mM MgCl2, 25 mM NaCl, 1 mM DTT and 3% DMSO. Final substrate concentrations in the assay were 50 μM ATP (Sigma Chemicals) and 80 μM peptide (Kemptide, American Peptide, Sunnyvale, Calif.). Assays were carried out at 30 ° C. and 18 nM PKA. Final concentrations of the components of the coupled enzyme system were 2.5 mM phosphoenolpyruvate, 300 μM NADH, 30 μg/ml pyruvate kinase and 10 μg/ml lactate dehydrogenase.
# An assay stock buffer solution was prepared containing all of the reagents listed above, with the exception of ATP, and the test compound of the present invention. 55 μl of the stock solution was placed in a 96 well plate followed by addition of 2 μl of DMSO stock containing serial dilutions of the test compound of the present invention (typically starting from a final concentration of 5 μM). The plate was preincubated for 10 minutes at 30° C. and the reaction initiated by addition of 5 μl of ATP (final concentration 50 μM). Initial reaction rates were determined with a Molecular Devices SpectraMax Plus plate reader over a 15 minute time course. IC50 and Ki data were calculated from non-linear regression analysis using the Prism software package (GraphPad Prism version 3.0a for Macintosh, GraphPad Software, San Diego, Calif., USA).
# ROCK = target: T2, ROCK (Homo sapiens, UniProt Q13464); assay: ROCK Inhibition Assays; conditions: read-out: ROCK enzyme inhibition (Ki)
# T2 construct: ROCK I (AA 6-553)
# T2 sequence (Q13464 6-553): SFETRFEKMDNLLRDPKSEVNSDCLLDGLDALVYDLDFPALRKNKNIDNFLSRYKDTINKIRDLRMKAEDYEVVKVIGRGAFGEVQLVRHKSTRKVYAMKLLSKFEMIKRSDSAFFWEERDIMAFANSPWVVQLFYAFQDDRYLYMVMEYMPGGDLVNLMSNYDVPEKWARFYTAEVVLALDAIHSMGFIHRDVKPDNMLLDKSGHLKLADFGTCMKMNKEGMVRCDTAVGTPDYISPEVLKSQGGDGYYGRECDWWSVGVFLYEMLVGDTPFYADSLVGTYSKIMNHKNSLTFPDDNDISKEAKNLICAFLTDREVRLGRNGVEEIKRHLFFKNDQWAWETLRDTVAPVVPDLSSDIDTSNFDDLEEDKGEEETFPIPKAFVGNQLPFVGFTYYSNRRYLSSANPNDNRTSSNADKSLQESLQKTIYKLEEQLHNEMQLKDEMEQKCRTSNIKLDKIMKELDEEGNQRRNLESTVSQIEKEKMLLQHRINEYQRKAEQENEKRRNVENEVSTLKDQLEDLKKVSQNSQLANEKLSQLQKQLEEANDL
# Protocol: Compounds are screened for their ability to inhibit ROCK I (AA 6-553) activity using a standard coupled enzyme system (Fox et al. Protein Sci. 7: 2249, 1998). Reactions are carried out in a solution containing 100 mM HEPES (pH 7.5), 10 mM MgCl2, 25 mM NaCl, 2 mM DTT and 1.5% DMSO. Final substrate concentrations in the assay are 45 μM ATP (Sigma Chemicals, St Louis, Mo.) and 200 μM peptide (American Peptide, Sunnyvale, Calif.). Reactions are carried out at 30 ° C. and 45 nM ROCK I. Final concentrations of the components of the coupled enzyme system are 2.5 mM phosphoenolpyruvate, 350 μM NADH, 30 μg/ml pyruvate kinase and 10 μg/ml lactate dehydrogenase.
# Compounds are screened for their ability to inhibit ROCK using a standard radioactive enzyme assay. Assays are carried out in a solution containing 100 mM HEPES (pH 7.5), 10 mM MgCl2, 25 mM NaCl, 2 mM DTT and 1.5% DMSO. Final substrate concentrations in the assay are 13 μM [γ-^33P] ATP (25 mCi ^33P ATP/mmol ATP, Perkin Elmer, Cambridge, Mass./Sigma Chemicals, St Louis, Mo.) and 27 μM Myelin Basic Protein (MBP). Final enzyme concentration in the assay is 5 nM ROCK. Assays are carried out at room temperature. 1.5 μl of DMSO stock containing serial dilutions of the compound of the present invention (concentrations ranging from 10 μM to 2.6 nM) is placed in a 96 well plate. 50 μl of Solution 1 (100 mM HEPES (pH 7.5), 10 mM MgCl2, […] [γ-^33P] ATP) is added to the plate. The reaction is initiated by addition of 50 μl of Solution 2 (100 mM HEPES (pH 7.5), 10 mM MgCl2, 4 mM DTT, […] and 10 nM ROCK). After 2 hours the reaction is quenched with 50 μL of 30% trichloroacetic acid (TCA, Fisher) containing 9 mM ATP. Transfer of 140 μL of the quenched reaction to a glass fiber filter plate (Corning, Cat. No.3511) is followed by washing 3 times with 5% TCA. 50 μL of Optima Gold scintillation fluid (Perkin Elmer) is added and the plates are counted on a Top Count (Perkin Elmer). After removing mean background values for all of the data points the data is fit using Prism software to obtain a Ki(app).
Ki (JAK3),Ki (JAK2),Ki (PKA),Ki (ROCK),SMILES
< 500 nM,< 500 nM,500 to 5000 nM,500 to 5000 nM,"C1=C(c2ncnc3[nH]ccc23)CCC1 [Compound 1, 4-cyclopentenyl-7H-pyrrolo[2,3-d]pyrimidine]"
< 500 nM,< 500 nM,500 to 5000 nM,500 to 5000 nM,C1=C(c2ncnc3[nH]ccc23)CCCC1 [Compound 2]
500 to 5000 nM,500 to 5000 nM,500 to 5000 nM,500 to 5000 nM,"c1nc(C2CCCC2)c2cc[nH]c2n1 [Compound 3, 4-cyclopentyl-7H-pyrrolo[2,3-d]pyrimidine]"
< 500 nM,< 500 nM,500 to 5000 nM,500 to 5000 nM,"C(=C\c1ncnc2[nH]ccc12)/c1ccccc1 [Compound 4, 4-styryl-7H-pyrrolo[2,3-d]pyrimidine]"
< 500 nM,< 500 nM,500 to 5000 nM,500 to 5000 nM,"Fc1ccc(/C=C/c2ncnc3[nH]ccc23)cc1 [Compound 5, 4-(4-fluorostyryl)-7H-pyrrolo[2,3-d]pyrimidine]"
< 500 nM,< 500 nM,500 to 5000 nM,500 to 5000 nM,"Clc1ccc(/C=C/c2ncnc3[nH]ccc23)cc1 [Compound 6, 4-(4-chlorostyryl)-7H-pyrrolo[2,3-d]pyrimidine]"
< 500 nM,< 500 nM,500 to 5000 nM,500 to 5000 nM,"FC(F)(F)c1ccc(/C=C/c2ncnc3[nH]ccc23)cc1 [Compound 7, 4-(4-(trifluoromethyl)styryl)-7H-pyrrolo[2,3-d]pyrimidine]"
500 to 5000 nM,> 5000 nM,500 to 5000 nM,500 to 5000 nM,"C=C(c1ccccc1)c1ncnc2[nH]ccc12 [Compound 8, 4-(1-phenylvinyl)-7H-pyrrolo[2,3-d]pyrimidine]"
< 500 nM,< 500 nM,500 to 5000 nM,500 to 5000 nM,CC(C)(C)OC(=O)N1CC=C(c2ncnc3[nH]ccc23)CC1 [Compound 9]
< 500 nM,500 to 5000 nM,500 to 5000 nM,500 to 5000 nM,CC1CCCC=C1c1ncnc2[nH]ccc12 (stereo not drawn) [Compound 11]
–,500 to 5000 nM,500 to 5000 nM,500 to 5000 nM,C=C(c1ncnc2[nH]ccc12)C1CCCCC1 [Compound 12]
< 500 nM,< 500 nM,500 to 5000 nM,500 to 5000 nM,C1=C(c2ncnc3[nH]ccc23)CCSC1 [Compound 13]
500 to 5000 nM,500 to 5000 nM,500 to 5000 nM,500 to 5000 nM,C=Cc1ncnc2[nH]ccc12 [Compound 14]
> 5000 nM,> 5000 nM,500 to 5000 nM,500 to 5000 nM,CC(=O)N1CC=C(c2ncnc3[nH]ccc23)CC1 [Compound 15]
> 5000 nM,500 to 5000 nM,500 to 5000 nM,500 to 5000 nM,O=C(CC(F)(F)F)N1CC=C(c2ncnc3[nH]ccc23)CC1 [Compound 16]
500 to 5000 nM,< 500 nM,500 to 5000 nM,500 to 5000 nM,N#CCC(=O)N1CC=C(c2ncnc3[nH]ccc23)CC1 [Compound 17]
< 500 nM,< 500 nM,500 to 5000 nM,500 to 5000 nM,C=C(c1ncnc2[nH]ccc12)C1CCCC1 [Compound 18]
< 500 nM,< 500 nM,500 to 5000 nM,500 to 5000 nM,CC1CC=C(c2ncnc3[nH]ccc23)C1C (stereo not drawn) [Compound 19]
< 500 nM,< 500 nM,500 to 5000 nM,500 to 5000 nM,C1=C(c2ncnc3[nH]ccc23)CCCCC1 [Compound 20]
< 500 nM,< 500 nM,500 to 5000 nM,500 to 5000 nM,C1=C(c2ncnc3[nH]ccc23)C2CCC1C2 (stereo not drawn) [Compound 21]
500 to 5000 nM,500 to 5000 nM,500 to 5000 nM,500 to 5000 nM,C=C(c1ncnc2[nH]ccc12)C1CCCN(C(=O)OC(C)(C)C)C1 (stereo not drawn) [Compound 22]
500 to 5000 nM,500 to 5000 nM,500 to 5000 nM,500 to 5000 nM,CC(c1ccccc1)c1ncnc2[nH]ccc12 (stereo not drawn) [Compound 23]
> 5000 nM,> 5000 nM,500 to 5000 nM,500 to 5000 nM,COC(=O)C(C)Cc1ncnc2[nH]ccc12 (stereo not drawn) [Compound 24]
500 to 5000 nM,500 to 5000 nM,500 to 5000 nM,500 to 5000 nM,CC(C)Cc1ncnc2[nH]ccc12 [Compound 25]

SMILES,Ki (JAK3),Ki (JAK2),Ki (PKA),Ki (ROCK)
C1=C(c2ncnc3[nH]ccc23)CCNC1 [Compound 10],> 5000 nM,> 5000 nM,500 to 5000 nM,500 to 5000 nM

# Source: US8633205B2, “Substituted pyrrolo[2,3-d]pyrimidines as inhibitors of protein kinases” (Vertex Pharmaceuticals Incorporated, priority 2005, dated 2014)
